For one assay, the target named is T1, purified human HDAC6 (Homo sapiens, UniProt Q9UBN7).
T1 construct: purchased BPS Bioscience 5006
T1 sequence (Q9UBN7 1-1215): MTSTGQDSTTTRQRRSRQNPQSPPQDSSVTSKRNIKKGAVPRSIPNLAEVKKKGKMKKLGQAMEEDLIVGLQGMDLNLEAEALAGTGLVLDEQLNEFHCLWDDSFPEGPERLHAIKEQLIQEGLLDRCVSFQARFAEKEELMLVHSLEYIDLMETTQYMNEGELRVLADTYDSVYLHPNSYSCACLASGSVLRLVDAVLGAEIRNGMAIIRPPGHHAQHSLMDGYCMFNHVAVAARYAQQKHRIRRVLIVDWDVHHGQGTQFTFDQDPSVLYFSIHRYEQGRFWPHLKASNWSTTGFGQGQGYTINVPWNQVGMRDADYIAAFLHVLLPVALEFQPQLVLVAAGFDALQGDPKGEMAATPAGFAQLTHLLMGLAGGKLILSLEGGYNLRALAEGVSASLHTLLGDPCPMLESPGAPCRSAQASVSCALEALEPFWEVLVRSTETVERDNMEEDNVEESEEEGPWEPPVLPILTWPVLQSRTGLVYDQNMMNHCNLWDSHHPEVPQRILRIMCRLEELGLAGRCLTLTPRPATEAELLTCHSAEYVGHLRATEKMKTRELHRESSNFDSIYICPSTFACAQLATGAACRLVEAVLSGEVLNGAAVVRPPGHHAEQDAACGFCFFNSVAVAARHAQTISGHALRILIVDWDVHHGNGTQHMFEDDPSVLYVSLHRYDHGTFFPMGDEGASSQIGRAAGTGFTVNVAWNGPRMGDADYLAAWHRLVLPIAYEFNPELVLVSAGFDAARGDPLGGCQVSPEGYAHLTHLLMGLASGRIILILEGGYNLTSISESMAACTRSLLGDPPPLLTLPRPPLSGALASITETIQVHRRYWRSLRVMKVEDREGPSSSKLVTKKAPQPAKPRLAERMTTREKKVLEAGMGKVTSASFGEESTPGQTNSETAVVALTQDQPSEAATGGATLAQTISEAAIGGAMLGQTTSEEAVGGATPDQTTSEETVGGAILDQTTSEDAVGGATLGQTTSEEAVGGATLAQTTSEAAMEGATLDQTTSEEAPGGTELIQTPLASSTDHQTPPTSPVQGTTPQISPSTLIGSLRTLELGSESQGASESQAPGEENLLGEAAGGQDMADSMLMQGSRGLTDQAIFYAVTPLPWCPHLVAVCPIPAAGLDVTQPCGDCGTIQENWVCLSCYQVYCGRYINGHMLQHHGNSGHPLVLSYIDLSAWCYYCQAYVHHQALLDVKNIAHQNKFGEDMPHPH
Description: HDAC6 enzyme assay. The assay is classed as biochemical. The settings on record: bin: less than 100 nM. As to the method:
To measure the inhibition of HDAC6 activity, purified human HDAC6 (BPS Bioscience; Cat. No. 5006) is incubated with substrate Ac-Arg-Gly-Lys(Ac)-AMC peptide (Bachem Biosciences; Cat. No. I-1925) for 1 hour at 30° C. in the presence of test compounds or vehicle DMSO control. The reaction is stopped with the HDAC inhibitor trichostatin A (Sigma; Cat. No. T8552) and the amount of Arg-Gly-Lys-AMC generated is quantitated by digestion with trypsin (Sigma; Cat. No. T1426) and subsequent measurement of the amount of AMC released using a fluorescent plate reader (Pherastar; BMG Technologies) set at Ex 340 nm and Em 460 nm. Concentration response curves are generated by calculating the fluorescence increase in test compound-treated samples relative to DMSO-treated controls, and enzyme inhibition (IC50) values are determined from those curves.
In general, IC50 refers to the concentration at which inhibition is half-maximal. High values mean weaker potency, low ones greater potency. `Cn1ccc2cc(C(=O)N3CCn4cc(C(=O)NO)cc4C3)ccc21` [Compound I-89, N-hydroxy-2-[(1-methyl-1H-indol-5-yl)carbonyl]-1,2,3,4-tetrahydropyrrolo[1,2-a]pyrazine-7-carboxamide] came in with an IC50 of less than 100 nM.

On to `Cn1c(C(=O)N2CCn3cc(C(=O)NO)cc3C2)cc(Cl)c1Cl` [Compound I-91, 2-[(4,5-dichloro-1-methyl-1H-pyrrol-2-yl)carbonyl]-N-hydroxy-1,2,3,4-tetrahydropyrrolo[1,2-a]pyrazine-7-carboxamide], for which the IC50 was less than 100 nM. For the compound `Cc1cc(C(=O)N2CCn3cc(C(=O)NO)cc3C2)c(C)[nH]1` [Compound I-94, 2-[(2,5-dimethyl-1H-pyrrol-3-yl)carbonyl]-N-hydroxy-1,2,3,4-tetrahydropyrrolo[1,2-a]pyrazine-7-carboxamide], the IC50 is less than 100 nM. Still for that read-out and setting: the figure for `Cc1c(C(=O)N2CCn3cc(C(=O)NO)cc3C2)cnn1-c1ccccc1` [Compound I-99, N-hydroxy-2-[(5-methyl-1-phenyl-1H-pyrazol-4-yl)carbonyl]-1,2,3,4-tetrahydropyrrolo[1,2-a]pyrazine-7-carboxamide] is less than 100 nM. The same measure, in the same setting: the figure for `O=C(NO)c1cn2c(n1)CN(C(=O)Nc1ccccc1)CC2` [Compound I-116, N2-hydroxy-N7-phenyl-5,6-dihydroimidazo[1,2-a]pyrazine-2,7(8H)-dicarboxamide] is less than 100 nM; for `Cc1onc(-c2ccccc2)c1CN1CCn2cc(C(=O)NO)cc2C1=O` [Compound I-197, N-hydroxy-2-[(5-methyl-3-phenylisoxazol-4-yl)methyl]-1-oxo-1,2,3,4-tetrahydropyrrolo[1,2-a]pyrazine-7-carboxamide] it is less than 100 nM; for `O=C(NO)c1cc2n(c1)CCN(Cc1ccc(C(F)(F)F)cc1)C2=O` [Compound I-240, N-hydroxy-1-oxo-2-[4-(trifluoromethl)benzyl]-1,2,3,4-tetrahydropyrrolo[1,2-a]pyrazine-7-carboxamide] it is less than 100 nM.

The same assay, now with this note: bins: greater than 1 μM and less than 10 μM; greater than 10 μM.
`Cc1nc(CC(=O)N2CCn3nc(C(=O)NO)cc3C2)cs1` [Compound I-90, N-hydroxy-5-[(2-methyl-1,3-thiazol-4-yl)acetyl]-4,5,6,7-tetrahydropyrazolo[1,5-a]pyrazine-2-carboxamide] came in with an IC50 of 1000 to 10000 nM.

Consider `CCc1cc(C(=O)N2CCCn3cc(C(=O)NO)cc3C2)n(C)n1` [Compound I-95, 2-[(3-ethyl-1-methyl-1H-pyrazol-5-yl)carbonyl]-N-hydroxy-2,3,4,5-tetrahydro-1H-pyrrolo[1,2-a][1,4]diazepine-8-carboxamide], for which the IC50 fell in the range of 1000 to 10000 nM.

Take `O=C(NO)c1cc2n(c1)CCCN(C(=O)c1csc3ccccc13)C2` [Compound I-96, 2-(1-benzothien-3-ylcarbonyl)-N-hydroxy-2,3,4,5-tetrahydro-1H-pyrrolo[1,2-a][1,4]diazepine-8-carboxamide]: the IC50 lay in the range of 1000 to 10000 nM. On to `O=C(NO)c1cc2n(n1)CCCN(C(=O)c1cc3ccccc3s1)C2` [Compound I-98, 5-(1-benzothien-2-ylcarbonyl)-N-hydroxy-5,6,7,8-tetrahydro-4H-pyrazolo[1,5-a][1,4]diazepine-2-carboxamide], for which the IC50 lay in the range of 1000 to 10000 nM. The compound `Cn1c(C(=O)N2CCCn3nc(C(=O)NO)cc3C2)cc2ccccc21` [Compound I-105, N-hydroxy-5-[(1-methyl-1H-indol-2-yl)carbonyl]-5,6,7,8-tetrahydro-4H-pyrazolo[1,5-a][1,4]diazepine-2-carboxamide] registered an IC50 of 1000 to 10000 nM. In turn, `O=C(NO)c1cc2n(n1)CCN(C(=O)CCc1ccccc1)C2` [Compound I-106, N-hydroxy-5-(3-phenylpropanoyl)-4,5,6,7-tetrahydropyrazolo[1,5-a]pyrazine-2-carboxamide] had an IC50 of 1000 to 10000 nM.

`Cc1c(C(=O)N2CCCn3nc(C(=O)NO)cc3C2)oc2ccccc12` [Compound I-108, N-hydroxy-5-[(3-methyl-1-benzofuran-2-yl)carbonyl]-5,6,7,8-tetrahydro-4H-pyrazolo[1,5-a][1,4]diazepine-2-carboxamide] showed an IC50 of 1000 to 10000 nM. On the same count and under the same terms, the figure for `O=C(NO)c1cc2n(n1)CCN(CCCn1cccc1)C2=O` [Compound I-109, N-hydroxy-4-oxo-5-[3-(1H-pyrrol-1-yl)propyl]-4,5,6,7-tetrahydropyrazolo[1,5-a]pyrazine-2-carboxamide] is 1000 to 10000 nM; for `CCc1cccc(CC)c1NC(=O)N1CCn2cc(C(=O)NO)nc2C1` [Compound I-115, N7-(2,6-diethylphenyl)-N2-hydroxy-5,6-dihydroimidazo[1,2-a]pyrazine-2,7(8H)-dicarboxamide] it is 1000 to 10000 nM; for `CCC(C)NC(=O)N1CCn2cc(C(=O)NO)nc2C1` (stereo not shown) [Compound I-118, N7-(sec-butyl)-N2-hydroxy-5,6-dihydroimidazo[1,2-a]pyrazine-2,7(8H)-dicarboxamide] it is 1000 to 10000 nM.

Consider `Cc1onc(-c2ccccc2)c1NC(=O)N1CCn2cc(C(=O)NO)nc2C1` [Compound I-122, N2-hydroxy-N7-(5-methyl-3-phenylisoxazol-4-yl)-5,6-dihydroimidazo[1,2-a]pyrazine-2,7(8H)-dicarboxamide], for which the IC50 was 1000 to 10000 nM. As for `O=C(NO)c1cn2c(n1)CN(C(=O)NCc1ccccc1)CC2` [Compound I-123, N7-benzyl-N2-hydroxy-5,6-dihydroimidazo[1,2-a]pyrazine-2,7(8H)-dicarboxamide], the IC50 lay within 1000 to 10000 nM.
